Assay results published in patent US10442836B2, “1-(chloromethyl)-2,3-dihydro-1H-benzo[E]indole dimer antibody-drug conjugate compounds, and methods of use and treatment” (priority 2013, dated 2019).

Assays:
[1] = system: EOL-1 cells; assay: EOL-1 in vitro cell viability (CellTiter-Glo cell proliferation assay); assay type: cell-based, human; details: EOL-1 in vitro cell viability at 3 days versus concentrations (μg/ml)
Excerpt: The CellTiter-Glo® Luminescent Cell Viability Assay is a commercially available (Promega Corp., Madison, Wis.), homogeneous assay method based on the recombinant expression of Coleoptera luciferase (U.S. Pat. Nos. 5,583,024; 5,674,713; 5,700,670). This cell proliferation assay determines the number of viable cells in culture based on quantitation of the ATP present, an indicator of metabolically active cells (Crouch et al (1993) J. Immunol. Meth. 160:81-88; U.S. Pat. No. 6,602,677). The CellTiter-Glo® Assay was conducted in 96 well format, making it amenable to automated high-throughput screening (HTS) (Cree et al (1995) AntiCancer Drugs 6:398-404). The homogeneous assay procedure involves adding the single reagent (CellTiter-Glo® Reagent) directly to cells cultured in serum-supplemented medium. Cell washing, removal of medium and multiple pipetting steps are not required. The system detects as few as 15 cells/well in a 384-well format in 10 minutes after adding reagent and mixing. The cells may be treated continuously with ADC, or they may be treated and separated from ADC.
The homogeneous “add-mix-measure” format results in cell lysis and generation of a luminescent signal proportional to the amount of ATP present. The amount of ATP is directly proportional to the number of cells present in culture. […] Viable cells are reflected in relative luminescence units (RLU). […]
Efficacy of ADC was measured by a cell proliferation assay employing the following protocol ([…] GLO™ Luminescent Cell Viability Assay, Promega Corp. Technical Bulletin TB288; Mendoza et al (2002) Cancer Res. 62:5485-5488): • 1. […] The plate was incubated at room temperature for 10 minutes to stabilize the luminescence signal. • 8. Luminescence was recorded and reported in graphs as RLU=relative luminescence units. • Data are plotted as the mean of luminescence for each set of replicates, with standard deviation error bars. […]

CN(CCN(C)C(=O)Oc1cc2c(c3ccccc13)[C@H](CCl)CN2C(=O)CCCC(=O)N1C[C@@H](CCl)c2c1cc(O)c1ccccc21)C(=O)CBr
melting point: 167 to 170 °C

CN(CCN(C)C(=O)Oc1cc2c(c3ccccc13)[C@H](CCl)CN2C(=O)CCCC(=O)N1C[C@@H](CCl)c2c1cc(OP(=O)(O)O)c1ccccc21)C(=O)CCCCCN1C(=O)C=CC1=O
melting point: 191 to 194 °C (dec.)

CN1CCN(C(=O)Oc2cc3c(c4ccccc24)C(CCl)CN3C(=O)/C=C/c2ccc(/C=C/C(=O)N3C[C@@H](CCl)c4c3cc(OC(=O)N3CCN(C)CC3)c3ccccc43)cc2NC(=O)CCNC(=O)CCCCCN2C(=O)C=CC2=O)CC1 (stereo partly drawn)
melting point: 268 °C (dec.)

B1: ADC 125: Thio Hu Anti-CD33 15G15.33 HC A118C-MC-MMED-(CBI dimer phos); linker-CBI intermediate 57 (conjugate)
VH: QVQLVQSGAEVKKPGSSVKVSCKASGGIFSNHAISWVRQAPGQGLEWMGGIIPIFGTANYAQKFQGRVTITADESTSTAFMELSSLRSEDTAVYYCAREWADVFDIWGQGTMVTVSS
VL: EIVLTQSPLSLPVTPGEPASISCRSSQSLLHSNGYNYLDWYLQKPGQSPQLLIYLGVNSVSGVPDRFSGSGSGTDFTLKISRVEAEDVGVYYCMQALQTPWTFGQGTKVEIK
cell-killing activity [1]: modest dose response cell-killing activity

B2: ADC 127: Thio Hu Anti-CD33 15G15.33 HC A118C-MC-ED-(CBI dimer DVB diphos); linker-CBI intermediate 66 (conjugate)
VH: QVQLVQSGAEVKKPGSSVKVSCKASGGIFSNHAISWVRQAPGQGLEWMGGIIPIFGTANYAQKFQGRVTITADESTSTAFMELSSLRSEDTAVYYCAREWADVFDIWGQGTMVTVSS
VL: EIVLTQSPLSLPVTPGEPASISCRSSQSLLHSNGYNYLDWYLQKPGQSPQLLIYLGVNSVSGVPDRFSGSGSGTDFTLKISRVEAEDVGVYYCMQALQTPWTFGQGTKVEIK
cell-killing activity [1]: potent, dose responsive cell-killing activity

B3: ADC 129: Thio Hu Anti-CD33 15G15.33 HC A118C-MC-ED-(CBI dimer DVB phos); linker-CBI intermediate 68 (conjugate)
VH: QVQLVQSGAEVKKPGSSVKVSCKASGGIFSNHAISWVRQAPGQGLEWMGGIIPIFGTANYAQKFQGRVTITADESTSTAFMELSSLRSEDTAVYYCAREWADVFDIWGQGTMVTVSS
VL: EIVLTQSPLSLPVTPGEPASISCRSSQSLLHSNGYNYLDWYLQKPGQSPQLLIYLGVNSVSGVPDRFSGSGSGTDFTLKISRVEAEDVGVYYCMQALQTPWTFGQGTKVEIK
cell-killing activity [1]: potent, dose responsive cell-killing activity
